Test results from patent publication US20180140578A1, “METHODS AND COMPOSITIONS FOR THE DIAGNOSIS AND SELECTIVE TREATMENT OF CANCER” (Board of Regents of the University of Texas System, priority 2016, published 2018).

Legend:
[1] = target: T1, RBM39-3xFLAG with DDA1, DDB1, CUL4A, CUL4B (Homo sapiens, UniProt Q14498+Q66K64); test: Co-immunoprecipitation of RBM39-3xFLAG from treated cells; assay type: cell-based; conditions: cells treated with indisulam but not DMSO
T1 construct: endogenous in cells; host or cells: HCT-116 RBM39-3xFLAG knock-in cells (treated cells in A90)
Procedure: (§1) Anti-Flag M2 antibody (Sigma-Aldrich) was coupled to Dynabeads M-270 epoxy beads (Life Technologies) at the ratio of 10 μg of antibody/mg beads. […] Frozen cells were then pulverized in the a cryomill (Retsch) with one 25 mm steel ball and five cycles of three min at 25 Hz with intermittent cooling in liquid nitrogen. […] The lysates were centrifuged at 8000 g for 5 min at 4° C. 12 mg of conjugated Anti-Flag magnetic beads were mixed with clarified lysates for 5 min at 4° C. on a rotating platform, followed by three washes with IP buffer. Bound proteins were eluted with 1 mg/ml 3xFLAG peptide, followed by SDS-PAGE on a 10% Bis Tris gel. After brief electrophoresis, bands containing all the proteins were cut with clean blades. For western blotting of co-immunoprecipitated proteins, anti-DDA1 (ProteinTech, 14995-1-AP, 1:1000), anti-DDB1 (Abcam, ab109027, 1;10000), anti-CUL4A (Cell Signaling, 2699, 1:1000), anti-CUL4B (ProteinTech, 12916-1-AP, 1:1000) were used.

[2] = test system: H1155 RBM39 G268V knock-in cells; test: Cell viability assay, RBM39 G268V knock-in; assay type: cell-based, human
Procedure: (§2) 12-point dose responses were performed on 96-well assay plates with cell plating (1500-4000 cell per well) on day 1, compound addition on day 2, and survival measurement on day 5. Compounds were diluted in DMSO before adding to the cells. Final DMSO concentration was 0.5%. Cell survival assay was performed using CellTiter-Glo Luminescent Cell Viability Assay kit (Promega) that measures cellular ATP content. Luminescence was recorded by EnVison multimode plate reader (Perkin Elmer). IC50 was determined with GraphPad Prism using baseline correction (by normalizing to DMSO control), the asymmetric (five parameter) equation and least squares fit.
(§3) sgRNA targeting RBM39 (5′-[…]-3′) was cloned into the pSpCas9(BB)-2A-Puro (PX459) vector (Addgene 62988). For RBM39 G268V knock-in, 1 million HCT-116 or H1155 cells were nucleofected (using 4D-Nucleofector, Lonza) with PX459-RBM39 sgRNA and the single-stranded oligo 5′-[…] […] […] […]-3′ (SEQ ID NO: 13).

[3] = test system: HCT-116 RBM39 G268V knock-in cells; test: Cell viability assay, RBM39 G268V knock-in; assay type: cell-based, human
Procedure: as §2, §3

[4] = target: T2, RBM39 G268V-3xFLAG with CUL4 complex (Homo sapiens, UniProt Q14498+Q66K64, G268V); test: Co-immunoprecipitation of RBM39 G268V-3xFLAG from treated cells; assay type: cell-based; conditions: in the presence of indisulam
T2 construct: lysate derived from parental cells, RBM39-3xFLAG cells, or RBM39 G268V-3xFLAG cells; endogenous in cells; host or cells: HCT-116 RBM39 G268V-3xFLAG cells (treated cells in A91; lysates in A95)
Procedure: as §1

RBM39-AcGFP = target: T3, RBM39-AcGFP (Homo sapiens, UniProt Q14498+Q66K64); test: CRISPR inactivation of DDB1, DDA1, DCAF15; RBM39-AcGFP by flow cytometry; assay type: cell-based; conditions: H1155 RBM39-AcGFP cells
T3 construct: Homology directed repair facilitates tagging of endogenous RBM39 by AID, 3xFLAG, AcGFP, or Nanoluciferase; endogenous in cells; host or cells: H1155 RBM39-AcGFP knock-in cells
Procedure: Two independent guide RNAs targeting DDB1, DDA1, DCAF15 were cloned into PX459. 0.2 million H1155 RBM39-AcGFP cells were transfected with PX459 sgRNA constructs and selected with 2 μg/ml puromycin to enrich for transfected cells. […] Cells were then trypsinized and the expression of RBM39-AGFP was quantified with flow cytometry. H1155 cells transfected with DCAF15 guide RNA were sparsely plated on 10 cm^2 plates and clones were isolated. Genomic DNA sequence flanking the cut site were amplified and sequenced to identify DCAF15−/− clones.

758 cancer cell lines = conditions: CTD2 AUC values; cited from earlier work
[5] = target: T4, RBM39-3xFLAG with DDA1, DDB1, CUL4A (Homo sapiens, UniProt Q14498+Q66K64); test: In vitro formation of RBM39-CUL4-DCAF15 complex in lysates; assay type: binding; conditions: indisulam dose-dependent manner
T4 construct: endogenous in cells; host or cells: HCT-116 RBM39-3xFLAG knock-in cells (treated cells in A90)
Procedure: First, we reconstituted formation of the RBM39-CUL4-DCAF15 complex in vitro (FIG. 4, panel A).
as §1

[6] = test system: RBM39 with indisulam-resistant mutations; test: RBM39 degradation in resistant cells (western blotting); assay type: cell-based, human; conditions: resistant cells harboring indisulam-resistant mutations
Procedure: Proteins were resolved on SDS-PAGE and transferred to 0.5 μm nitrocellulose membranes. Membranes were blocked in 5% milk TBST for 30 min, and then anti-RBM39 antibodies (HPA001591, Sigma-Aldrich) were added in 5% milk (1:5000) and incubated on a shaker overnight at 4° C. After three 5 min washes with TBST, membranes were incubated with HRP-conjugated goat anti-rabbit secondary antibody (Bio-Rad) for 2 hr at room temperature. After three 5 min washes with TBST, membranes were developed with ECL (enhanced chemiluminescence) substrates.

[7] = test system: non-small cell lung cancer cell lines; test: IC50 assay, U2AF1 S34F vs wild type NSCLC cell lines; assay type: cell-based, human; conditions: four S34F vs sixty-six wild type lines; p=0.01
Procedure: Cells were plated at ˜15% confluence in a media comprising 5% concentration of fetal bovine serum supplemented with RPMI, which included 2 mM L-Glutamine in a 96 well dish. […] Following three days of incubation in a 5% CO2 incubator, the total ATP in each well was quantified using Cell Titer Glo (Promega). […] The solid lines represent the medians.

HCT-116 cells = test: Cell viability assay (CellTiter-Glo); assay type: cell-based, human; conditions: Homo sapiens, read-out: concentration required to reduce the viability by 50% (IC50); parental HCT-116 cells
Procedure: The identity for all human cell lines in this study was confirmed by short tandem repeat (STR) analysis. In addition, all human cell lines were confirmed to be mycoplasma free using a PCR based assay (Genatlantis). HCT-116 cells (ATCC) were grown in DMEM medium with 10% FBS and 2 mM L-glutamine. Lenti-X 293T cells (Clontech) were cultured in DMEM medium with 10% FBS and 2 mM L-glutamine. H1155 cells (a gift from Adi Gazdar and John Minna, UT Southwestern) were cultured in RPMI media with 5% FBS and 2 mM L-glutamine. SF9 cells (a gift from Hongtao Yu, UT Southwestern) were cultured in SF900 II serum free media (Life Technologies).
as §2

SMILES: NS(=O)(=O)c1ccc(S(=O)(=O)Nc2cccc3c(Cl)c[nH]c23)cc1 [Indisulam, indisulam]
- co-purification of RBM39-3xFLAG with DDA1, DDB1, CUL4A, CUL4B [1]: co-purified
- effect of G268V editing on indisulam sensitivity [2]: indisulam resistance
- IC50 ([3]; Homo sapiens, HCT-116, two independent RBM39 G268V knock-in HCT-116 clones): 38.9 µM
- IC50 ([3]; two independent RBM39 G268V knock-in HCT-116 clones): 52.2 µM
- recruitment of RBM39 G268V to the CUL4 complex [4]: not recruited
- RBM39-AcGFP after indisulam treatment (RBM39-AcGFP): degraded
- sensitivity to indisulam amongst hematopoietic and lymphoid (HL) lineage cell lines (758 cancer cell lines): significantly enriched
- co-purification of DDA1, DDB1, CUL4A with RBM39-3xFLAG in lysates [5]: co-purified
- RBM39 protein levels [6]: no effect
- sensitivity of U2AF1 S34F vs U2AF1 wild type NSCLC cell lines [7]: more sensitive
- IC50 (HCT-116 cells): 0.56 µM
